System: ulcer
Assay: Anti-ulcer test (restraint and water immersion ulcer in rats, i.p.)
Assay type: in vivo, Male Wistar rats
Details: Rattus norvegicus, ip; 50 mg/kg i.p.; read-out: % Inhibition of Ulcer
Description: The anti-ulcer and anti-edema activity of the compounds was evaluated in efficacy tests described below.
Male Wistar rats weighing about 150 g on average were not fed for 24 hours before the test. Then a solution or suspension of a predetermined concentration of the test compound in physiological saline was administered to them intraperitoneally. One hour after the administration,each rat was restrained in a net cage and submerged in a water both (21° C.) from the tail to xiphistrenun for 6 hours. Test animals were then killed (by dislocation of the cervical vertebrae), the stomach was removed and incised along the curvatura ventriculi major, and the inside wall of the stomach was pathologically examined under microscopic observation. Rats in which the occurrence of an ulceration was substantially not observed were rated O, while others were rated 0.5, 1, 2 or 3, depending on the severity of the ulcer development. The percent inhibition of ulcer was calculated by the following formula: [formula]

SMILES	inhibition in vivo at 50 mg/kg [%]
CCOc1cccc2c1C(=O)OC(C(CC(C)C)NC(=O)C(O)C1OC(=O)CC1NC(=O)c1cocc1C(=O)O)C2 (stereo not drawn) [IIIa-5-59]	44
CCOc1cccc2c1C(=O)OC(C(CC(C)C)NC(=O)C(O)C1OC(=O)CC1NC(=O)C1CCCCCCC1)C2 (stereo not drawn) [IIIa-5-60]	44
CCOc1cccc2c1C(=O)OC(C(CC(C)C)NC(=O)C(O)C1OC(=O)CC1NC(=O)CCC1CCCC1)C2 (stereo not drawn) [IIIa-5-61]	33
CCOc1cccc2c1C(=O)OC(C(CC(C)C)NC(=O)C(O)C1OC(=O)CC1NC(=O)Cc1ccc3ccccc3c1)C2 (stereo not drawn) [IIIa-5-62]	33
CCOc1cccc2c1C(=O)OC(C(CC(C)C)NC(=O)C(O)C1OC(=O)CC1NC(=O)Cc1ccc(C)cc1)C2 (stereo not drawn) [IIIa-5-63]	33
CCOc1cccc2c1C(=O)OC(C(CC(C)C)NC(=O)C(O)C1OC(=O)CC1NC(=O)C1CCC(C(=O)OC)CC1)C2 (stereo not drawn) [IIIa-5-66]	44
CCOc1cccc2c1C(=O)OC(C(CC(C)C)NC(=O)C(O)C1OC(=O)CC1NC(=O)c1ccc(C(C)C)cc1)C2 (stereo not drawn) [IIIa-5-67]	44
CCOc1cccc2c1C(=O)OC(C(CC(C)C)NC(=O)C(O)C1OC(=O)CC1NC(=O)C1CC3C=CC1C3)C2 (stereo not drawn) [IIIa-5-69]	33
CCOc1cccc2c1C(=O)OC(C(CC(C)C)NC(=O)C(O)C1OC(=O)CC1NC(=O)C1CCC(OC)CC1)C2 (stereo not drawn) [IIIa-5-71]	33
CCOc1cccc2c1C(=O)OC(C(CC(C)C)NC(=O)C(O)C1OC(=O)CC1NC(=O)Cn1cnnn1)C2 (stereo not drawn) [IIIa-5-72]	44
CCCCCc1ccc(C(=O)NC2CC(=O)OC2C(O)C(=O)NC(CC(C)C)C2Cc3cccc(OCC)c3C(=O)O2)cc1 (stereo not drawn) [IIIa-5-73]	44
CCCC=Cc1ccc(C(=O)NC2CC(=O)OC2C(O)C(=O)NC(CC(C)C)C2Cc3cccc(OCC)c3C(=O)O2)cc1 (stereo not drawn) [IIIa-5-74]	44
CCOc1cccc2c1C(=O)OC(C(CC(C)C)NC(=O)C(O)C1OC(=O)CC1NC(=O)CCCCCCCCCO)C2 (stereo not drawn) [IIIa-5-75]	33
CCOc1cccc2c1C(=O)OC(C(CC(C)C)NC(=O)C(O)C1OC(=O)CC1NC(=O)CC1CC1)C2 (stereo not drawn) [IIIa-5-76]	33
CCOc1cccc2c1C(=O)OC(C(CC(C)C)NC(=O)C(O)C1OC(=O)CC1NC(=O)C(C)=C(C)Br)C2 (stereo not drawn) [IIIa-5-77]	44
CCOc1cccc2c1C(=O)OC(C(CC(C)C)NC(=O)C(O)C1OC(=O)CC1NC(=O)C=C(C)C)C2 (stereo not drawn) [IIIa-5-78]	44
CCCCCc1ccc(COc2cccc3c2C(=O)OC(C(CC(C)C)NC(=O)C(O)C2OC(=O)CC2NC(=O)CCC)C3)cc1 (stereo not drawn) [IIIa-5-119]	33
CCCC=Cc1ccc(COc2cccc3c2C(=O)OC(C(CC(C)C)NC(=O)C(O)C2OC(=O)CC2NC(=O)CCC)C3)cc1 (stereo not drawn) [IIIa-5-120]	33
CCCC(=O)NC1CC(=O)OC1C(O)C(=O)NC(CC(C)C)C1Cc2cccc(OC(C)C)c2C(=O)O1 (stereo not drawn) [IIIa-5-121]	33
CC(C)CC(NC(=O)C(O)C1OC(=O)CC1NC(=O)C(Cl)(Cl)Cl)C1Cc2cccc(OCCCC3CCCC3)c2C(=O)O1 (stereo not drawn) [IIIa-5-124]	33
CCC(=O)COc1cccc2c1C(=O)OC(C(CC(C)C)NC(=O)C(O)C1OC(=O)CC1NC(=O)C(Cl)(Cl)Cl)C2 (stereo not drawn) [IIIa-5-125]	33
CCOc1cccc2c1C(=O)OC(C(CC(C)C)NC(=O)C(OC(=O)C(Cl)(Cl)Cl)C1OC(=O)CC1NC(=O)C(Cl)(Cl)Cl)C2 (stereo not drawn) [IIIa-6-1]	33
CC(=O)NC1CC(=O)OC1C(OC(C)=O)C(=O)NC(CC(C)C)C1Cc2cccc(OCC(C)C)c2C(=O)O1 (stereo not drawn) [IIIa-6-2]	33
CCOc1cccc2c1C(=O)OC(C(CC(C)C)NC(=O)C(OC(C)=O)C1OC(=O)CC1NC(=O)CC(C)C)C2 (stereo not drawn) [IIIa-6-3]	33
CCCCCCCCCCCCCCCCCC(=O)NC1CC(=O)OC1C(OC(C)=O)C(=O)NC(CC(C)C)C1Cc2cccc(OCC)c2C(=O)O1 (stereo not drawn) [IIIa-6-4]	22
CCCCCCCCC=CCCCCCCCC(=O)NC1CC(=O)OC1C(OC(C)=O)C(=O)NC(CC(C)C)C1Cc2cccc(OCC)c2C(=O)O1 (stereo not drawn) [IIIa-6-5]	22
CCCCCCCCCCCCCCCCCCOc1cccc2c1C(=O)OC(C(CC(C)C)NC(=O)C(OC(C)=O)C1OC(=O)CC1NC(=O)C1CCCO1)C2 (stereo not drawn) [IIIa-6-6]	33
CCOc1cccc2c1C(=O)OC(C(CC(C)C)NC(=O)C(OC(C)=O)C1OC(=O)CC1NC(=O)CC(C)OC)C2 (stereo not drawn) [IIIa-6-7]	33
CCOc1cccc2c1C(=O)OC(C(CC(C)C)NC(=O)C(OC(C)=O)C1OC(=O)CC1NC(=O)c1ccc(C)cc1)C2 (stereo not drawn) [IIIa-6-8]	22
CCOc1cccc2c1C(=O)OC(C(CC(C)C)NC(=O)C(OC(C)=O)C1OC(=O)CC1NC(=O)c1ccc(OCCC(C)C)cc1)C2 (stereo not drawn) [IIIa-6-9]	22

Source: patent US4393225A, “AI-77 Compounds and pharmaceutically acceptable salts thereof” (Asahi Kasei Kogyo Kabushiki Kaisha, priority 1979, dated 1983)
